Laboratory results as given in PubChem BioAssay (NCI).
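Five compound concentrations were applied to cells in 96-well plates for 48 hours; endpoints were derived by simple linear interpolation of the resulting dose-response curve. GI50 is the concentration that inhibits growth by half. TGI is the concentration that stops growth completely.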

Legend:
Assay in all cases: growth of human tumour cells (NCI), 48 h
[1] = tested on: 786-0 renal
[2] = tested on: A498 renal
[3] = tested on: A549 NSCLC
[4] = tested on: ACHN renal
[5] = tested on: BT-549 breast
[6] = tested on: CAKI-1 renal
[7] = tested on: CCRF-CEM leukemia
[8] = tested on: COLO 205 colon
[9] = tested on: DU-145 prostate
[10] = tested on: EKVX NSCLC
[11] = tested on: HCC-2998 colon
[12] = tested on: HCT-116 colon
[13] = tested on: HCT-15 colon
[14] = tested on: HL-60(TB) leukemia
[15] = tested on: HOP-62 NSCLC
[16] = tested on: HOP-92 NSCLC
[17] = tested on: HS 578T breast
[18] = tested on: HT29 colon
[19] = tested on: K-562 leukemia
[20] = tested on: KM12 colon
[21] = tested on: LOX IMVI melanoma
[22] = tested on: M14 melanoma
[23] = tested on: MALME-3M melanoma
[24] = tested on: MCF7 breast
[25] = tested on: MDA-MB-231 breast
[26] = tested on: MDA-MB-435
[27] = tested on: MOLT-4 leukemia
[28] = tested on: NCI-H226 lung
[29] = tested on: NCI-H23 lung
[30] = tested on: NCI-H460 lung
[31] = tested on: NCI-H522 lung
[32] = tested on: NCI/ADR-RES ovarian
[33] = tested on: OVCAR-3 ovarian
[34] = tested on: OVCAR-4 ovarian
[35] = tested on: OVCAR-5 ovarian
[36] = tested on: OVCAR-8 ovarian
[37] = tested on: PC-3 prostate
[38] = tested on: RPMI-8226 leukemia
[39] = tested on: RXF 393 renal
[40] = tested on: SF-268 CNS
[41] = tested on: SF-295 CNS
[42] = tested on: SF-539 CNS
[43] = tested on: SK-MEL-28 melanoma
[44] = tested on: SK-MEL-5 melanoma
[45] = tested on: SK-OV-3 ovarian
[46] = tested on: SN12C renal
[47] = tested on: SNB-19 CNS
[48] = tested on: SNB-75 CNS
[49] = tested on: SR leukemia
[50] = tested on: SW-620 colon
[51] = tested on: T-47D breast
[52] = tested on: TK-10 renal
[53] = tested on: U251 CNS
[54] = tested on: UACC-257 melanoma
[55] = tested on: UACC-62 melanoma
[56] = tested on: UO-31 renal

Q: Which results are given for `COC(=O)/C=C/C=C(c1ccccc1)c1ccccc1`?
A: GI50 [1]: 4.32 µM; TGI [1]: 58.5 µM; GI50 [2]: 10.6 µM; TGI [2]: 39.6 µM; GI50 [3]: 5.02 µM; TGI [3]: > 100 µM; GI50 [4]: 5.56 µM; TGI [4]: > 100 µM; GI50 [5]: 3.4 µM; TGI [5]: 19.6 µM; GI50 [6]: 3.05 µM; TGI [6]: 10.4 µM; GI50 [7]: 6.48 µM; TGI [7]: > 100 µM; GI50 [8]: 3.57 µM; TGI [8]: 13.9 µM; GI50 [9]: 5.48 µM; TGI [9]: 52.8 µM; GI50 [10]: 4.06 µM; TGI [10]: 32.8 µM; GI50 [11]: 28.8 µM; TGI [11]: > 100 µM; GI50 [12]: 3.68 µM; TGI [12]: 18.9 µM; GI50 [13]: 3.79 µM; TGI [13]: 42.1 µM; GI50 [14]: 3.26 µM; TGI [14]: 26.1 µM; GI50 [15]: 4.14 µM; TGI [15]: 40.9 µM; GI50 [16]: 3.52 µM; TGI [16]: 38.8 µM; GI50 [17]: 8.65 µM; TGI [17]: 46 µM; GI50 [18]: 3.85 µM; TGI [18]: > 100 µM; GI50 [19]: 4 µM; TGI [19]: > 100 µM; GI50 [20]: 3.67 µM; TGI [20]: 27.4 µM; GI50 [21]: 5.87 µM; TGI [21]: 21.7 µM; GI50 [22]: 3.36 µM; TGI [22]: 17.5 µM; GI50 [23]: 4.23 µM; TGI [23]: 30.4 µM; GI50 [24]: 4.08 µM; TGI [24]: > 100 µM; GI50 [25]: 11.1 µM; TGI [25]: 36 µM; GI50 [26]: 1.63 µM; TGI [26]: 4.37 µM; GI50 [27]: 14.2 µM; TGI [27]: > 100 µM; GI50 [28]: 14.3 µM; TGI [28]: > 100 µM; GI50 [29]: 16.3 µM; TGI [29]: > 100 µM; GI50 [30]: 3.67 µM; TGI [30]: 15.2 µM; GI50 [31]: 5.88 µM; TGI [31]: 78.1 µM; GI50 [32]: 3.12 µM; TGI [32]: 17 µM; GI50 [33]: 2.4 µM; TGI [33]: 8.24 µM; GI50 [34]: 8.59 µM; TGI [34]: > 100 µM; GI50 [35]: 14 µM; TGI [35]: > 100 µM; GI50 [36]: 15 µM; TGI [36]: > 100 µM; GI50 [37]: 4.67 µM; TGI [37]: > 100 µM; GI50 [38]: 6.36 µM; TGI [38]: 95.5 µM; GI50 [39]: 6.24 µM; TGI [39]: 30 µM; GI50 [40]: 4.63 µM; TGI [40]: > 100 µM; GI50 [41]: 2.76 µM; TGI [41]: 8.12 µM; GI50 [42]: 5.17 µM; TGI [42]: 43.3 µM; GI50 [43]: 7.84 µM; TGI [43]: > 100 µM; GI50 [44]: 3.43 µM; TGI [44]: 13.8 µM; GI50 [45]: 5.93 µM; TGI [45]: 48.9 µM; GI50 [46]: 7.83 µM; TGI [46]: > 100 µM; GI50 [47]: 9.31 µM; TGI [47]: > 100 µM; GI50 [48]: 2.72 µM; TGI [48]: 53.1 µM; GI50 [49]: 4.51 µM; TGI [49]: > 100 µM; GI50 [50]: 3.03 µM; TGI [50]: > 100 µM; GI50 [51]: 3.16 µM; TGI [51]: > 100 µM; GI50 [52]: 20.3 µM; TGI [52]: > 100 µM; GI50 [53]: 3.6 µM; TGI [53]: 29.3 µM; GI50 [54]: 8.82 µM; TGI [54]: > 100 µM; GI50 [55]: 5.43 µM; TGI [55]: 25.4 µM; GI50 [56]: 3.27 µM; TGI [56]: 37.8 µM
